Laboratory results reported in US20060188913A1, “Methods and products for enhancing immune responses using imidazoquinoline compounds” (University of Iowa Research Foundation, priority 2001, published 2006).

Legend:
[1] = tested on: human PBMC; assay: IFN-gamma secretion by human PBMC (ELISA); type: cell-based; details: 48 hours, compared to R-848, not shown
Protocol: This experiment investigated the induction of the Th1 cytokine IFN-gamma as well as the Th1-related chemokine IP-10 (IFN-gamma inducible protein). Unfractionated human PBMC from three donors were incubated for 48 hours in the presence of varying concentrations of R-848 (0.01-1.0 μg/ml), varying concentrations of CpG ODN 2006 (0.2-3.0 μg/ml), varying concentrations of negative control ODN 5177 (0.2-3.0 μg/ml), SEB (50 ng/ml), or media alone, and then the concentrations of IP-10 and IFN-gamma in the supernatant were measured by ELISA.

[2] = target: T1, hTLR8 (Homo sapiens, UniProt Q9NR97); assay: IL-8 production in 293 fibroblasts transiently expressing hTLR8; type: cell-based; details: CpG-ODN 2 μM, LPS 100 ng/ml
T1 construct: plasmids (pcDNA3.1 constructs) coding for full length hTLR2, hTLR7, hTLR8 and hTLR9; expressed in transfected cells; host or cells: 293T cells
T1 sequence (Q9NR97 27-1041): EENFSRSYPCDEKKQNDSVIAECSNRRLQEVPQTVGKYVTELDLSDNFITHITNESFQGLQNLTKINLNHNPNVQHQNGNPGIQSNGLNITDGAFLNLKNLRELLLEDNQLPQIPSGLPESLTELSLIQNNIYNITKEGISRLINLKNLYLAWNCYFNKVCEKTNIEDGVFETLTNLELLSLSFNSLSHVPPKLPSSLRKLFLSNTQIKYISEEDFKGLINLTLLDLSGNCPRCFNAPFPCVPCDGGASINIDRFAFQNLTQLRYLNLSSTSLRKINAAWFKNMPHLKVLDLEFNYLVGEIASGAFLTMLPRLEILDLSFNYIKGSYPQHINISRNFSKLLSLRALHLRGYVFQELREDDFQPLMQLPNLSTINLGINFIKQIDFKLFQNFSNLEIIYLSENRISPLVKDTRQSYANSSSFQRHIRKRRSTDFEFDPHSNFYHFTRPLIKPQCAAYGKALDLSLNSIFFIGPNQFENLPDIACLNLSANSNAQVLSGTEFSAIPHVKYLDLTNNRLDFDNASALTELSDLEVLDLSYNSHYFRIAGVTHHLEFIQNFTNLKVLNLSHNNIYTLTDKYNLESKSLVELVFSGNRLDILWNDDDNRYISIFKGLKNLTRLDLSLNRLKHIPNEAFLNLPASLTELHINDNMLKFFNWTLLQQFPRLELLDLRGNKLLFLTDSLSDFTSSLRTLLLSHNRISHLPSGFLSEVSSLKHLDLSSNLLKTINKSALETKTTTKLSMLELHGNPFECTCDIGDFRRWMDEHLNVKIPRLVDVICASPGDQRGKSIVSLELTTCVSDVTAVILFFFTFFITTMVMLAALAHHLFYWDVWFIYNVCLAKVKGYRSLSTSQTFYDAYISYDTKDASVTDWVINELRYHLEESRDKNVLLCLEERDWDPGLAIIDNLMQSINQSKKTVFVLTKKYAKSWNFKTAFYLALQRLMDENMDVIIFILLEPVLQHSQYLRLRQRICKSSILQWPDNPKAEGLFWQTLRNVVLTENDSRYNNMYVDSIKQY
Protocol: The cloned human TLR7 and human TLR8 cDNA were cloned into the expression vector pCDNA3. 1 (−) from Invitrogen using the NotI site. Utilizing a “gain of function” assay, hTLR7 and hTLR8 expression vectors were transiently expressed in human 293 fibroblasts (ATCC, CRL-1573) using the calcium phosphate method. Activation was monitored by IL-8 production after stimulus with CpG-ODN (2006 or 1668, 2 μM) or LPS (100 ng/ml).

activation monitored by IL-8 production [2]: None of the stimuli used activated
Substance: CpG ODN 2006
IFN-gamma induction [1]: The same result was obtained
